The values below come from US20180213779A1, “PESTICIDALLY ACTIVE HETEROCYCLIC DERIVATIVES WITH SULPHUR CONTAINING SUBSTITUENTS” (SYNGENTA PARTICIPATIONS AG, priority 2015, published 2018).

What all share (type): in vivo
Assay [1] concerns Spodoptera littoralis (Egyptian Cotton Leaf Worm). The assay is described as follows: Example B4: Activity against Spodoptera littoralis (sprayed cotton leaf discs). As to conditions: foliar, 72 h, application rate of 200 ppm, L1 larvae, 3 days after infestation. The protocol: Example B4: Activity Against Spodoptera littoralis (Egyptian Cotton Leaf Worm)
Cotton leaf discs were placed on agar in 24-well microtiter plates and sprayed with aqueous test solutions prepared from 10′000 ppm DMSO stock solutions. After drying the leaf discs were infested with five L1 larvae. The samples were assessed for mortality, anti-feedant effect, and growth inhibition in comparison to untreated samples 3 days after infestation. Control of Spodoptera littoralis by a test sample is given when at least one of the categories mortality, anti-feedant effect, and growth inhibition is higher than the untreated sample.

In assay [2] the test system is Tetranychus urticae (Two-Spotted Spider Mite). The assay is described as follows: Example B12: Activity against Tetranychus urticae (sprayed bean leaf discs). As to conditions: foliar, 192 h, application rate of 200 ppm, mixed population (mobile stages), 8 days after infestation. The procedure:
Example B12: Activity Against Tetranychus urticae (Two-Spotted Spider Mite)
Bean leaf discs on agar in 24-well microtiter plates were sprayed with aqueous test solutions prepared from 10′000 ppm DMSO stock solutions. After drying the leaf discs were infested with a mite population of mixed ages. The samples were assessed for mortality on mixed population (mobile stages) 8 days after infestation.

The test system of assay [3] is Plutella xylostella (Diamond-Back Moth). In words: Example B3: Plutella xylostella larvicide, feeding/contact activity, preventative (artificial diet, 96-well). As to conditions: 216 h, application rate of 500 ppm, mortality assessed 9 days after treatment. The procedure:
Example B3: Plutella xylostella (Diamond-Back Moth) larvicide, feeding/contact activity, preventative Artificial diet was dispensed into a 96-well microtiter plate and treated with aqueous test solutions prepared from 10′000 ppm DMSO stock solutions. Eggs were suspended above the treated diet and first instar larvae hatched onto the diet. Mortality was assessed 9 days after treatment.

In assay [4] the test system is Diabrotica balteata (Corn Root Worm). In words: Example B6: Activity against Diabrotica balteata (sprayed maize sprouts). As to conditions: 96 h, application rate of 200 ppm, L2 larvae, 4 days after infestation, read-out: effect in at least one of the two categories (mortality or growth inhibition). The procedure:
Example B6: Activity Against Diabrotica Balteata (Corn Root Worm)
Maize sprouts placed onto an agar layer in 24-well microtiter plates were treated with aqueous test solutions prepared from 10′000 ppm DMSO stock solutions by spraying. After drying, the plates were infested with L2 larvae (6 to 10 per well). The samples were assessed for mortality and growth inhibition in comparison to untreated samples 4 days after infestation.

The test system of assay [5] is Plutella xylostella (Diamond Back Moth). The assay is described as follows: Example B11: Activity against Plutella xylostella (artificial diet, 24-well, L2 larvae). Particulars: 120 h, application rate of 200 ppm, 5 days after infestation, read-out: effect in at least one of the two categories (mortality or growth inhibition). The procedure:
Example B11: Activity Against Plutella xylostella (Diamond Back Moth)
24-well microtiter plates with artificial diet were treated with aqueous test solutions prepared from 10′000 ppm DMSO stock solutions by pipetting. After drying, the plates were infested with L2 larvae (10 to 15 per well). The samples were assessed for mortality and growth inhibition in comparison to untreated samples 5 days after infestation.

In assay [6] the test system is Euschistus heros (Neotropical Brown Stink Bug). The assay is described as follows: Example B7: Activity against Euschistus heros (sprayed soybean leaves). As to conditions: 120 h, application rate of 200 ppm, N2 nymphs, 5 days after infestation, read-out: effect in at least one of the two categories (mortality or growth inhibition). The protocol: Example B7: Activity Against Euschistus heros (Neotropical Brown Stink Bug)
Soybean leaves on agar in 24-well microtiter plates were sprayed with aqueous test solutions prepared from 10′000 ppm DMSO stock solutions. After drying the leaves were infested with N2 nymphs. The samples were assessed for mortality and growth inhibition in comparison to untreated samples 5 days after infestation.

Assay [7] has as its system Myzus persicae (Green Peach Aphid). The assay is described as follows: Example B9: Activity against Myzus persicae (roots of pea seedlings in test solutions). Particulars: 144 h, test rate of 24 ppm, mixed ages, 6 days after placing seedlings into test solutions. The procedure: Example B9: Activity Against Myzus persicae (Green Peach Aphid)
Roots of pea seedlings infested with an aphid population of mixed ages were placed directly into aqueous test solutions prepared from 10′000 DMSO stock solutions. The samples were assessed for mortality 6 days after placing seedlings into test solutions.

Assay [8] has as its system Spodoptera littoralis (Egyptian Cotton Leaf Worm). The assay is described as follows: Example B5: Activity against Spodoptera littoralis (systemic, lettuce grown on treated agar). As to conditions: 144 h, test rate of 12.5 ppm, 6 days after infestation, uptake by lettuce roots, read-out: effect in at least one of the three categories (mortality, anti-feeding, or growth inhibition). The text has this: Example B5: Activity Against Spodoptera littoralis (Egyptian Cotton Leaf Worm)
Test compounds were applied by pipette from 10′000 ppm DMSO stock solutions into 24-well plates and mixed with agar. Lettuce seeds were placed onto the agar and the multi well plate was closed by another plate which contained also agar. After 7 days the compound was absorbed by the roots and the lettuce grew into the lid plate. The lettuce leaves were then cut off into the lid plate. Spodoptera eggs were pipetted through a plastic stencil onto a humid gel blotting paper and the lid plate was closed with it. The samples were assessed for mortality, anti-feedant effect and growth inhibition in comparison to untreated samples 6 days after infestation.

The test system of assay [9] is Myzus persicae (Green Peach Aphid). In words: Example B8: Activity against Myzus persicae (sprayed sunflower leaf discs). Particulars: foliar, 144 h, application rate of 200 ppm, mixed ages, 6 days after infestation. The protocol:
Example B8: Activity Against Myzus persicae (Green Peach Aphid)
Sunflower leaf discs were placed onto agar in a 24-well microtiter plate and sprayed with aqueous test solutions prepared from 10′000 ppm DMSO stock solutions. After drying, the leaf discs were infested with an aphid population of mixed ages. The samples were assessed for mortality 6 days after infestation.

Assay [10] shares this test system. The assay is described as follows: Example B10: Activity against Myzus persicae (sucrose solution, Parafilm feeding). Particulars: 120 h, test rate of 12 ppm, 5 days after infestation. The text has this: Example B10: Activity Against Myzus persicae (Green Peach Aphid)
Test compounds prepared from 10′000 ppm DMSO stock solutions were applied by pipette into 24-well microtiter plates and mixed with sucrose solution. The plates were closed with a stretched Parafilm. A plastic stencil with 24 holes was placed onto the plate and infested pea seedlings were placed directly on the Parafilm. The infested plate was closed with a gel blotting paper and another plastic stencil and then turned upside down. The samples were assessed for mortality 5 days after infestation.

In [1], `CCS(=O)(=O)c1cc(Br)cnc1-c1cn(-c2cccc(C(F)(F)F)c2)nn1` [Compound P12, 5-bromo-3-ethylsulfonyl-2-[1-[3-(trifluoromethyl)phenyl]triazol-4-yl]pyridine] displayed a percent control (mortality, anti-feedant effect or growth inhibition) at 200 ppm of at least 80%. The mortality (usually the share of the test organisms that died) at 200 ppm in [2] was at least 80%. Moreover, in assay [3], the pest or weed control (commonly how far the test organism was held down) at 500 ppm was at least 70%. For the same compound, the effect (mortality or growth inhibition) at 200 ppm in assay [4] was at least 80%. Moreover, in assay [5], the percent effect (mortality or growth inhibition) at 200 ppm was at least 80%.

`CCS(=O)(=O)c1cccnc1-c1cn(-c2ccc(C(F)(F)F)nc2)nn1` [Compound P25] gave a pest or weed control at 500 ppm in [3] of at least 70%. Moreover, in assay [4], the effect (mortality or growth inhibition) at 200 ppm was at least 80%. For the same compound, the percent effect (mortality or growth inhibition) at 200 ppm in assay [6] and in assay [5] was at least 80% each time. This compound also registered a mortality at 24 ppm in assay [7] of at least 80%.

Consider `CCS(=O)(=O)c1cccnc1-c1cn(-c2cncc(C(F)(F)F)c2)nn1` [Compound P20], for which the percent control (mortality, anti-feedant effect or growth inhibition) at 200 ppm in [1] is at least 80%. Further, the percent effect (mortality, anti-feeding or growth inhibition) at 12.5 ppm in [8] is at least 80%. In assay [3], this compound registered a pest or weed control at 500 ppm of at least 70%. The compound also came in with a mortality at 200 ppm in assay [9] of at least 80%. The effect (mortality or growth inhibition) at 200 ppm in [4] was at least 80%. Also, the percent effect (mortality or growth inhibition) at 200 ppm in [5] was at least 80%. Moreover, in assay [7], the mortality at 24 ppm is at least 80%.

Regarding `CCSc1cccnc1-c1cn(-c2cncc(C(F)(F)F)c2)nn1` [Compound P19], the mortality at 12 ppm in assay [10] was at least 80%. The same compound returned a pest or weed control at 500 ppm in assay [3] of at least 70%. The compound also showed a mortality at 200 ppm in [9] of at least 80%. For the same compound, the effect (mortality or growth inhibition) at 200 ppm in [4] is at least 80%.
